Source: US11603377B2, “MTORC1 modulators and uses thereof” (Aeovian Pharmaceuticals, Inc., priority 2020, dated 2023)

Tests used:
[1] = target: mTORC2 (Homo sapiens (Human), UniProt P42345+P62942); experiment: mTORC2 inhibition, AlphaLISA of Phospho-AKT (pAKT pS473) in PC3 cells; assay type: cell-based
Description: Example 32: mTORC1 Inhibition, mTORC2 Inhibition, Cell Lysis, AlphaLISA Experiments, and Data Analysis
mTORC2 inhibition was determined via analysis of phosphorylation level of Phospho-AKT (pAKT pS473) with the corresponding AlphaLISA kit (PerkinElmer, Alpha SF Ultra™ Multiplex p-AKT1/2/3(Ser473)/Total AKT1). PC3 cells were plated on 96 well plates in assay medium (DMEM: Ham's F12, basic (CLS Cell Lines Service GmbH, Cat #820400a), supplemented with additional 10% FBS at 1.20E+06 cells/mL and incubated over-night at 37° C., 5% CO2. On the following day, cells were treated with assay medium (10% FBS) containing increasing compound concentrations (12 points at 3-fold dilutions) and incubated for 6 hours at 37° C., 5% CO2. Thereafter, medium was aspirated and cells were rinsed with PBS. In the following, cells were treated with compound dilutions in starvation medium (DMEM: Ham's F12, basic; without FBS) for further 18 h at 37° C., 5% CO2. Then, immediately prior to cell lysis, cells were treated with 12% FBS for 15 min.
After performing experiments according to mTORC1 and mTORC2 protocols, cells were harvested in lysis buffer supplied with the AlphaLISA kits, additionally enriched with Roche cOmplete™ Protease Inhibitor Cocktail (Cat #CO-RO). Thus, cells were lysed using 50 μL of the lysis buffer and incubated for 60 min at 4° C. while shaking. After centrifugation at 4000 rpm for 5 min, experiments were performed according to the AlphaLISA manufacturer's protocol.
Ten microliters of cell lysates were mixed with the acceptor mix. After incubation for 2 h at room temperature, the donor mix was added. After additional incubation at room temperature for 2 hours, AlphaLISA signal was read on PHERAstar® FSX (BMG Labtech) with AlphaPLEX module.
EC50 values were calculated by ExcelFit standard algorithm.

[2] = target: FKBP12 / FRB ternary complex (Homo sapiens (Human), UniProt P42345+P62942); experiment: SPR assay to characterize ternary complex formation with FKBP12 (FRB binding to rapalog-saturated FKBP12); details: FRB dilutions with 100 nM rapalog on immobilized FKBP12
Description: Example 30: SPR Assay to Characterize Ternary Complex Formation with FKBP12
(§1) Biotinylated avi-FKBP12 was immobilized on a streptavidin chip (Cytiva Series S SA) using a Biacore 8K or 8 k+ (Cytiva). To achieve an immobilization level of 100 RU, 0.3 μg/ml biotinylated avi-FKBP12 were injected for 80 sec at a flow rate of 10 μl/min. Serial dilution of FRB was prepared (12 concentrations, 3-fold dilutions, 0.00011-20 μM) and supplemented with 100 nM of rapalog. A-B-A injection mode was used to ensure saturation immobilized FKBP12 with respective rapalog. 100 nM solution of the respective rapalog was injected before FRB injection for 120 sec and during dissociation for 420 sec. The FRB dilutions were then injected 120 seconds contact time with increasing concentrations. […] 50 mM HEPES pH 7.5, 150 mM NaCl, 2 mM MgCl2, 1 mM DTT, 0.05% Tween-20, 1% DMSO was used as running buffer at a flow rate of 30 μl/min. The multi-cycle kinetics data were fit to a 1:1 binding model to measure the association rate ka (1/Ms), the dissociation rate kd (1/s) and the affinity Kd (M). In case of fast association and dissociation, steady state affinity analysis following the law of mass action was used to determine the affinity Kd (M).

[3] = target: FKBP51 (Homo sapiens (Human), UniProt Q13451); experiment: SPR assay to determine binding affinity to FKBP51 (direct binding); details: immobilized biotinylated avi-FKBP51
Chain of FKBP51 (Q13451 whole entry): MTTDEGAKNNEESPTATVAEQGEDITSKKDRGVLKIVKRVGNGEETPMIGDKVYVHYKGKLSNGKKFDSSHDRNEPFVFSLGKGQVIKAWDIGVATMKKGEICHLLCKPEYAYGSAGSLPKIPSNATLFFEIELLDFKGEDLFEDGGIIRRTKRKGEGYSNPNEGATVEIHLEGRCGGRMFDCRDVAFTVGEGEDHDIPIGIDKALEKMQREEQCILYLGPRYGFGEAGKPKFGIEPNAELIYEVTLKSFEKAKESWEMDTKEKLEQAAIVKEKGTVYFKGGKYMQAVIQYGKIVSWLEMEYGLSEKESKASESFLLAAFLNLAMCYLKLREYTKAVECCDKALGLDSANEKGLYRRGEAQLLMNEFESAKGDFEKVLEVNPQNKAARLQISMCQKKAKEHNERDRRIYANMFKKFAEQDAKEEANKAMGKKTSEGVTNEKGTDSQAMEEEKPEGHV
Description: Example 29: SPR Assay to Determine Binding Affinity to FKBP51
Biotinylated avi-FKBP51 was immobilized on a streptavidin chip (Cytiva Series S SA) using a Biacore 8K or 8 k+ (Cytiva). To achieve an immobilization level of 2000 RU, 3 μg/ml biotinylated avi-FKBP51 were injected for 360 sec at a flow rate of 10 μl/min. Rapalogs were diluted in DMSO to 100× working concentration. Each Rapalog was 100-fold diluted in 50 mM HEPES pH 7.5, 150 mM NaCl, 2 mM MgCl2, 1 mM DTT, 0.05% Tween-20 and a serial dilution prepared (8 concentrations, 3-fold dilutions, 0.5-1000 nM). […] The compound dilutions were then injected at 100 uL/min for 120 seconds contact time and with 3600 seconds dissociation time with increasing concentrations. 50 mM HEPES pH 7.5, 150 mM NaCl, 2 mM MgCl2, 1 mM DTT, 0.05% Tween-20, 1% DMSO was used as running buffer. Multi-cycle kinetics data were fit to a 1:1 binding model to measure the association rate ka (1/Ms), the dissociation rate kd (1/s) and the affinity Kd (M).

[4] = target: mTORC1 (Homo sapiens (Human), UniProt P42345+P62942); experiment: mTORC1 inhibition, AlphaLISA of Phospho-p70 S6 kinase (p70S6K pT389) in PC-3 cells; assay type: cell-based; details: inhibition of p70S6K pT389 levels
[5] = target: FKBP51 / FRB ternary complex (Homo sapiens (Human), UniProt P42345+Q13451); experiment: SPR assay to characterize ternary complex formation with FKBP51 (FRB binding to rapalog-saturated FKBP51); details: FRB dilutions with 100 nM rapalog on immobilized FKBP51
Description: Example 31: SPR Assay to Characterize Ternary Complex Formation with FKBP51
as §1, with “Biotinylated avi-FKBP51” for “Biotinylated avi-FKBP12”, “of 200” for “of 100”, “RU, 0.6” for “RU, 0.3”, “biotinylated avi-FKBP51” for “biotinylated avi-FKBP12”, “for 150” for “for 80”

[6] = target: FKBP12 (Homo sapiens (Human), UniProt P62942); experiment: SPR assay to determine binding affinity to FKBP12 (direct binding); details: immobilized biotinylated avi-FKBP12
Chain of FKBP12 (P62942 whole entry): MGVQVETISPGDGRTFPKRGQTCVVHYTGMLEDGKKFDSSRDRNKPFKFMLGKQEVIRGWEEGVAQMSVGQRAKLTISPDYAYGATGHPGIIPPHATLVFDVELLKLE
Description: SPR Assay to Determine Binding Affinity to FKBP12.
Biotinylated avi-FKBP12 was immobilized on a streptavidin chip (Cytiva Series S SA) using a Biacore 8K or 8 k+ (Cytiva). To achieve an immobilization level of 1000 RU, 2 μg/ml biotinylated avi-FKBP12 were injected for 100 sec at a flow rate of 10 μl/min. Rapalogs were diluted in DMSO to 100× working concentration. Each Rapalog was 100-fold diluted in 50 mM HEPES pH 7.5, 150 mM NaCl, 2 mM MgCl2, 1 mM DTT, 0.05% Tween-20 and a serial dilution prepared (9 concentrations, 3-fold dilutions, 0.08-500 nM). […] The compound dilutions were then injected at 100 uL/min for 120 seconds contact time in sequence with increasing concentrations. Dissociation was monitored for 3600 seconds. 50 mM HEPES pH 7.5, 150 mM NaCl, 2 mM MgCl2, 1 mM DTT, 0.05% Tween-20, 1% DMSO was used as running buffer. The single-cycle kinetics data were fit to a 1:1 binding model to measure the association rate ka (1/Ms), the dissociation rate kd (1/s) and the affinity Kd (M).

| Compound | Kd [2] [nM] | Kd [3] [nM] | IC50 [4] [nM] | Kd [5] [nM] | Kd [6] [nM] | inhibition at 1 µM ([1]; PC-3, read-out: mTORC2 % inhibition at 1 uM) [%] | mTORC2 % inhibition at 1 uM [1] |
| --- | --- | --- | --- | --- | --- | --- | --- |
| COC1CC(CC(C)C2CC(=O)C(C)C=C(C)C(O)C(OC)C(=O)C(C)CC(C)C=CC=CC=C(C)C(NS(=O)(=O)C3CC3)CC3CCC(C)C(O)(O3)C(=O)C(=O)N3CCCCC3C(=O)O2)CCC1O (mixture of isomers) [Compound 1] | 300 to 800 | 10 to 100 | 0.1 to 0.8 | < 300 | > 1 | – | A (A ≤20% inhibition at 1 micro Molar (uM)) |
| COCCOCCS(=O)(=O)NC1CC2CCC(C)C(O)(O2)C(=O)C(=O)N2CCCCC2C(=O)OC(C(C)CC2CCC(OCCCS(C)(=O)=O)C(OC)C2)CC(=O)C(C)C=C(C)C(O)C(OC)C(=O)C(C)CC(C)C=CC=CC=C1C (mixture of isomers) [Compound 4] | < 300 | 10 to 100 | < 0.1 | 300 to 800 | < 0.3 | – | A (A ≤20% inhibition at 1 micro Molar (uM)) |
| COC1CC(CC(C)C2CC(=O)C(C)C=C(C)C(O)C(OC)C(=O)C(C)CC(C)C=CC=CC=C(C)C(NS(=O)(=O)C3CC3)CC3CCC(C)C(O)(O3)C(=O)C(=O)N3CCCCC3C(=O)O2)CCC1OCCCO (mixture of isomers) [Compound 15] | < 300 | 10 to 100 | 0.1 to 0.8 | > 800 | < 0.3 | – | A (A ≤20% inhibition at 1 micro Molar (uM)) |
| COC1CC(CC(C)C2CC(=O)C(C)C=C(C)C(O)C(OC)C(=O)C(C)CC(C)C=CC=CC=C(C)C(OCC3CCC3)CC3CCC(C)C(O)(O3)C(=O)C(=O)N3CCCCC3C(=O)O2)CCC1O (stereo not drawn) [Compound 37] | 300 to 800 | – | > 0.8 | > 800 | > 1 | – | B (B>20% and less than 40% inhibition at 1 uM) |
| CO[C@@H]1C[C@H](C[C@@H](C)[C@@H]2CC(=O)[C@H](C)/C=C(\C)[C@@H](O)[C@@H](OC)C(=O)[C@H](C)C[C@H](C)/C=C/C=C/C=C(\C)[C@H](OCC3CCC3)C[C@@H]3CC[C@@H](C)[C@@](O)(O3)C(=O)C(=O)N3CCCC[C@H]3C(=O)O2)CC[C@H]1OCCCS(C)(=O)=O [Compound 63] | 300 to 800 | – | > 0.8 | > 800 | > 1 | – | C (C≥40% and less than 60% inhibition at 1 uM) |
| CO[C@H]1C[C@@H]2CC[C@@H](C)[C@@](O)(O2)C(=O)C(=O)N2CCCC[C@H]2C(=O)O[C@H]([C@H](C)C[C@@H]2CC[C@@H](O)[C@H](OC)C2)CC(=O)[C@H](C)/C=C(\C)[C@@H](O)[C@@H](OC)C(=O)[C@H](C)C[C@H](C)/C=C/C=C/C=C/1C [Rapamycin, reference compound] | – | < 10 | – | – | – | ≥ 60 | – |

Now from value to compound, other results behind:

| Kd [2] [nM] | Kd [3] [nM] | IC50 [4] [nM] | Kd [5] [nM] | Kd [6] [nM] | inhibition at 1 µM ([1]; PC-3, read-out: mTORC2 % inhibition at 1 uM) [%] | Compound | mTORC2 % inhibition at 1 uM [1] |
| --- | --- | --- | --- | --- | --- | --- | --- |
| < 300 | 10 to 100 | 0.1 to 0.8 | 300 to 800 | < 0.3 | – | COCCOCCS(=O)(=O)NC1CC2CCC(C)C(O)(O2)C(=O)C(=O)N2CCCCC2C(=O)OC(C(C)CC2CCC(OCCO)C(OC)C2)CC(=O)C(C)C=C(C)C(O)C(OC)C(=O)C(C)CC(C)C=CC=CC=C1C (mixture of isomers) [Compound 7] | B (B>20% and less than 40% inhibition at 1 uM) |
| 300 to 800 | 10 to 100 | 0.1 to 0.8 | > 800 | < 0.3 | – | COCCS(=O)(=O)NC1CC2CCC(C)C(O)(O2)C(=O)C(=O)N2CCCCC2C(=O)OC(C(C)CC2CCC(OCCCO)C(OC)C2)CC(=O)C(C)C=C(C)C(O)C(OC)C(=O)C(C)CC(C)C=CC=CC=C1C (mixture of isomers) [Compound 13] | A (A ≤20% inhibition at 1 micro Molar (uM)) |
| > 800 | 10 to 100 | > 0.8 | > 800 | 0.3 to 1 | – | CCOC(=O)COC1CCC(CC(C)C2CC(=O)C(C)C=C(C)C(O)C(OC)C(=O)C(C)CC(C)C=CC=CC=C(C)C(NS(=O)(=O)CCOC)CC3CCC(C)C(O)(O3)C(=O)C(=O)N3CCCCC3C(=O)O2)CC1OC (mixture of isomers) [Compound 14] | A (A ≤20% inhibition at 1 micro Molar (uM)) |
| 300 to 800 | 10 to 100 | 0.1 to 0.8 | > 800 | < 0.3 | – | COCCS(=O)(=O)NC1CC2CCC(C)C(O)(O2)C(=O)C(=O)N2CCCCC2C(=O)OC(C(C)CC2CCC(OCCO)C(OC)C2)CC(=O)C(C)C=C(C)C(O)C(OC)C(=O)C(C)CC(C)C=CC=CC=C1C (mixture of isomers) [Compound 16] | B (B>20% and less than 40% inhibition at 1 uM) |
| 300 to 800 | 10 to 100 | 0.1 to 0.8 | > 800 | < 0.3 | – | COCCS(=O)(=O)NC1CC2CCC(C)C(O)(O2)C(=O)C(=O)N2CCCCC2C(=O)OC(C(C)CC2CCC(OCCCS(C)(=O)=O)C(OC)C2)CC(=O)C(C)C=C(C)C(O)C(OC)C(=O)C(C)CC(C)C=CC=CC=C1C (mixture of isomers) [Compound 17] | A (A ≤20% inhibition at 1 micro Molar (uM)) |
